In the assay the target is T1, LPAAT-β (Homo sapiens, UniProt O15120).
T1 construct: the full-length human LPAAT-β cDNA was amplified by PCR; poly-histidine tag (N); made in house; host or cells: Sf9 insect cells (baculovirus, pFastBac HTc); membrane fraction used
T1 sequence (O15120 24-278): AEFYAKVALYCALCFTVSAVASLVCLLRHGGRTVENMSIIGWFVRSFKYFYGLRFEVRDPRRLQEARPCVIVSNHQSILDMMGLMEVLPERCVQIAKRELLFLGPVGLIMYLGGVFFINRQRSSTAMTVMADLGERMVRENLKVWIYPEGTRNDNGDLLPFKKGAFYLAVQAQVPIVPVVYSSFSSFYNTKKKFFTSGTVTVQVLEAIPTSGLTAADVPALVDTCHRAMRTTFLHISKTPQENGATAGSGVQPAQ
In words: LPAAT-β colorimetric assay (DTNB detection of released CoA). It is filed as biochemical. Conditions: Sf9 cell membrane overexpressing LPAAT-β; 18:1-CoA and sn-1-18:1 lysoPA; absorbance at 405 nm; read-out: LPAATβ Colorimetric Assay IC50. An excerpt: For the construction of Baculovirus expression vectors, the full-length human LPAAT-β cDNA was amplified by PCR from the DNA template pCE9.LPAAT-β (West et al., DNA Cell Biol. 16:691-701 (1997)) using the primers 5′-TGATATCCGAAGAAGATCTTATGGAGCTGTGGCCGTGTC-3′ (olpb1F) and 5′-CAGGCTCTAG ACTACTGGGC CGGCTGCAC-3′ (olpb1R). The ˜870 bp fragment generated was reamplified by PCR using the primers 5′ CCTACGTCG ACATGGAACAAAAATTGATATCCGAAGAAGATC-3′ (olpb2F) and 5′-CAGGCTCTAG ACTACTGGGC CGGCTGCAC-3′ (olpb1R). The ˜890 bp fragment generated was then cleaved with Sal I and Xba I for insertion into pFastBac™ HTc vector (Life Technologies, Gaithersberg, Md.) between the Sal I and Xba I sites for the generation of the plasmid pFB.LPAAT-β. This plasmid was then transformed into E. coli DH10Bac™ (Life Technologies, Gaithersberg, Md.) for the generation of recombinant Bacmid DNA for transfection into HighFive (Invitrogen, San Diego, Calif.) or SF9 insect cells for the production of recombinant Baculovirus stocks using the protocol described in the Bac-to-Bac® Baculovirus Expression System (Life Technologies, Gaithersberg, Md.), a eukaryotic expression system for generating recombinant baculovirus through site-specific transposition in E. coli. Viral stocks harvested from the transfected cells can then be used to infect fresh insect cells for the subsequent expression of LPAAT-β fusion protein with a poly-histidine tag and a myc-epitope near its N-terminus. The membrane fraction from these Sf9 cells would be the source of LPAAT enzyme.
For the preparation of membranes From Sf9 Cells, all steps are performed on ice or at 4° C. Sf9 cell pellets ([…]) were thawed and resuspended in 1-2 ml of buffer A (20 mM Hepes, pH 7.5, 1 mM DTT, 1 mM EDTA, 20% w/v glycerol, 1 mM Benzamidine, 1 μg/ml soybean trypsin inhibitor (SBTI), 1 μg/ml pepstatin A) w/o DTT but with 1 mM Pefabloc. The cells were lysed by sonication using a Branson Sonifier at output=2, duty cycle=2, 10 pulses each at 10 s. with the tip of small sonicator probe submerged but not touching the walls. DTT was then added to 1 mM from a 1M stock. The samples were centrifuged at 1500 rpm for 5 min. The low speed supernatant was saved and centrifuged (TLA 100.3 rotor, polycarbonate tubes, 2 ml/tube or 1.5 ml/tube minimum) at 100000×g for 1 hr. The high speed pellet was resuspend in Buffer A with a probe sonicator (10 pulses @ output #2 and duty cycle 20%) as a source of LPAAT enzyme.
LPAAT-β catalyzes the transfer of an acyl group from a donor such as acyl-CoA to LPA. The transfer of the acyl group from acyl-CoA to LPA leads to the release of free CoA, which can be reacted with the thiol reagent, 5,5′-dithiobis(2-nitrobenzoic acid) (DTNB). The reaction between DTNB and the free sulfhydryl group from CoA generates a yellow-colored product, 3-carboxylato-4-nitrothiophenolate (CNP), that absorbs at 413 nm. LPAAT-β derived from Sf9 cell membrane overexpressing LPAAT-β were resuspended in HEPES saline buffer (20 mM HEPES pH 7.5, 150 mM NaCl), 1 mg/ml BSA and 72 μl aliquots were distributed into 96-well microtiter plates. 8 μl of compound of interest at 200 μM dissolved in 100% DMSO was added into each well. 20 μl of 1 mM 18:1-CoA and 1 mM sn-1-18:1 lysoPA was then added to each well to initiate the reaction and allowed to run at room temperature for 25 min. 100 μl of 1 mM DTNB in 100% ethanol was then added to each well to quench the reaction and for color development. The absorbance at 405 nm, measured using a spectrophotometer plate reader, is proportional to the activity of LPAAT-β in the sample. This calorimetric assay was used for the high throughput screening of LPAAT inhibitors. […] Compounds that gave a reading of less than 0.06 arbitrary units (indicated by arrow on right margin) were selected for further study.

Each structure is given as a SMILES string. pIC50: −log10 of the molar value.

By pIC50 is commonly meant the negative decadic logarithm of the IC50, by convention in mol/L.

For `C#CCOC(=O)Nc1ccc(C)c(-c2nc3cccnc3o2)c1` [CT-32290, (4-Methyl-3-oxazolo[5,4,b]pyridin-2-yl-phenyl)-carbamic Acid Prop-2-ynyl Ester], the pIC50 was 5.92. `C#CCOC(=O)Nc1ccc(C)c(-c2nc3cc(Cl)ccc3s2)c1` [CT-32268, [3-(5-chloro-benzothiazol-2-yl)-4-methyl-phenyl]-carbamic Acid Prop-2-ynyl Ester]: the pIC50 was 6.82. The value for `N#CCC(=O)Nc1ccc(Cl)c(-c2nc3cc(Cl)ccc3s2)c1` [CT-32242, N-(4-Chloro-3-(5-chloro-benzothiazol-2-yl)-phenyl)-2-cyano-acetamide] was 7.82; that for `CCC(=O)Nc1ccc(Cl)c(-c2nc3cc(C(F)(F)F)ccc3s2)c1` [CT-32142, N-(4-Chloro-3-(5-trifluoromethyl-benzothiazol-2-yl)-phenyl)-propionamide] was 6.66; that for `CCC(=O)Nc1ccc(Cl)c(-c2nc3cc(Cl)ccc3o2)c1` [CT-32160, N-(4-Chloro-3-(5-chloro-benzooxazol-2-yl)-phenyl)-propionamide] was 6.46. For the compound `COC(=O)Nc1ccc(Cl)c(-c2nc3ccccc3o2)c1` [CT-32009, (3-Benzooxazol-2-yl-4-chloro-phenyl)-carbamic Acid Methyl Ester], the pIC50 was 6.30.

In the case of `COC(=O)Nc1ccc(Cl)c(-c2nc3cc(Cl)ccc3s2)c1` [CT-32191, [4-Chloro-3-(5-chloro-benzothiazol-2-yl)-phenyl]-carbamic Acid Methyl Ester], the pIC50 was 7.40. Regarding `C#CCOC(=O)Nc1ccc(Cl)c(-c2nc3ncccc3o2)c1` [CT-32259, (4-Chloro-3-oxazolo[4,5,b]pyridin-2-yl-phenyl)-carbamic Acid Prop-2-ynyl Ester], the pIC50 is 6.10. As to `CNC(=O)Nc1ccc(Cl)c(-c2nc3cc(C)ccc3o2)c1` [CT-32021, 1-(4-Chloro-3-(5-methyl-benzooxazol-2-yl)-phenyl)-3-methyl-urea], the pIC50 is 5.40.

In the case of `C#CCOC(=O)Nc1ccc(Cl)c(-c2nc3cc(C)ccc3o2)c1` [CT-32037, (4-Chloro-3-(5-methyl-benzooxazol-2-yl)-phenyl)-carbamic Acid Prop-2-ynyl Ester], the pIC50 was 6.72. For the compound `[N-]=[N+]=NCC(=O)Nc1ccc(Cl)c(-c2nc3cc(Cl)ccc3o2)c1` [CT-32289, 2-Azido-N-[4-chloro-3-(5-chloro-benzooxazol-2-yl)-phenyl]-acetamide], the negative logarithm of the IC50 (pIC50) is 6.76. The value for `CCC(=O)Nc1ccc(Cl)c(-c2nc3ccccc3o2)c1` [CT-32008, N-(3-Benzooxazol-2-yl-4-chloro-phenyl)-propionamide] was 6.05; that for `N#CCC(=O)Nc1ccc(Cl)c(-c2nc3cccnc3s2)c1` [CT-32315, N-(4Chloro-3-thiazolo[5,4,b]pyridin-2-yl-phenyl)-2-cyano-acetamide] was 6.96. Regarding `C#CCOC(=O)Nc1ccc(Cl)c(-c2nc3cc(C(F)(F)F)ccc3o2)c1` [CT-32173, (4-Chloro-3-(5-trifluoromethyl-benzooxazol-2-yl)-phenyl)-carbamic Acid Prop-2-ynyl Ester], the pIC50 is 6.85. The same measure for `COC(=O)Nc1ccc(Cl)c(-c2nc3cc(C)ccc3n2C)c1` [CT-32061, (4-Chloro-3-(1,5-dimethyl-1H-benzoimidazol-2-yl)-phenyl)-carbamic Acid Methyl Ester]: 4.97. For the compound `N#CCC(=O)Nc1ccc(Cl)c(-c2nc3cc(Cl)ccc3o2)c1` [CT-32214, N-[4-Chloro-3-(5-chloro-benzooxazol-2-yl)-phenyl]-2-cyano-acetamide], the pIC50 was 6.57.

In the case of `C#CCOC(=O)Nc1ccc(Cl)c(-c2nc3ccccc3o2)c1` [CT-32154, (3-Benzooxazol-2-yl-4-chloro-phenyl)-carbamic Acid Prop-2-ynyl Ester], the pIC50 is 7.30.

As for `COC(=O)Nc1ccc(C)c(-c2nc3cc(C)ccc3o2)c1` [CT-32036, (4-Methyl-3-(5-methyl-benzooxazol-2-yl)-phenyl)-carbamic Acid Methyl Ester], the pIC50 was 5.82.

Take `COC(=O)Nc1ccc(Cl)c(-c2nc3cc(Cl)ccc3o2)c1` [CT-32053, (4-Chloro-3-(5-chloro-benzooxazol-2-yl)-phenyl)-carbamic Acid Methyl Ester]: the pIC50 was 6.52.

As for `C#CCOC(=O)Nc1ccc(Cl)c(-c2nc3c(C)cccc3o2)c1` [CT-32079, (4-Chloro-3-(4-methyl-benzooxazol-2-yl)-phenyl)-carbamic acid Prop-2-ynyl Ester], the negative logarithm of the IC50 (pIC50) is 6.80. Take `C#CCCC(=O)Nc1ccc(Cl)c(-c2nc3cc(Cl)ccc3s2)c1` [CT-32278, Pent-4-ynoic acid [4-chloro-3-(5-chloro-benzothiazol-2-yl)-phenyl]-amide]: the pIC50 was 7.40.

Consider `CCC(=O)Nc1ccc(F)c(-c2nc3cc(C)ccc3o2)c1` [CT-32011, N-(4-Fluoro-3-(5-methyl-benzooxazol-2-yl)-phenyl)-propionamide], for which the pIC50 is 4.81. `COC(=O)Nc1ccc(Cl)c(-c2nc3cc(C(F)(F)F)ccc3s2)c1` [CT-32073, (4-Chloro-3-(5-trifluoromethyl-benzothiazol-2-yl)-phenyl)-carbamic Acid Methyl Ester]: the pIC50 was 6.70. For the compound `CC#CCOC(=O)Nc1ccc(Cl)c(-c2nc3cc(Cl)ccc3s2)c1` [CT-32262, (4-Chloro-3-(5-chloro-benzothiazol-2-yl)-phenyl)-carbamic Acid But-2-ynyl Ester], the pIC50 is 7.60. On to `C#CCOC(=O)Nc1ccc(Cl)c(-c2nc3cc(Cl)ccc3o2)c1` [CT-32161, (4-Chloro-3-(5-chloro-benzooxazol-2-yl)-phenyl)-carbamic Acid Prop-2-ynyl Ester], for which the pIC50 was 7.46. Turning to `C#CCCOC(=O)Nc1ccc(Cl)c(-c2nc3cc(Cl)ccc3s2)c1` [CT-32277, [4-Chloro-3-(5-chloro-benzothiazol-2-yl)-phenyl]-carbamic Acid But-3-ynyl Ester], the pIC50 is 7.26. As for `N#CCC(=O)Nc1ccc(Cl)c(-c2nc3cccnc3o2)c1` [CT-32271, N-(4-Chloro-3-oxazolo[5,4,b]pyridin-2-yl-phenyl)-2-cyano-acetamide], the pIC50 was 6.72. With `C#CCOC(=O)Nc1ccc(C)c(-c2nc3cc(C(F)(F)F)ccc3s2)c1` [CT-32203, 4-Methyl-3-(5-trifluoromethyl-benzothiazol-2-yl)-phenyl-carbamic Acid Prop-2-ynyl Ester], the pIC50 was 7.40. `C#CCOC(=O)Nc1ccc(Cl)c(-c2nc3cc(C(F)(F)F)ccc3s2)c1` [CT-32143, (4-Chloro-3-(5-trifluoromethyl-benzothiazol-2-yl)-phenyl)-carbamic Acid Prop-2-ynyl Ester]: the negative logarithm of the IC50 (pIC50) was 7.82.
